Literature values in patent publication US20100135908A1, “Delivery devices for modulating inflammation” (Searete LLC, a limited liability corporation of the state …, priority 2008, published 2010).
Values belong to the compound of their own block, whether it stands above or below them.

How the values were obtained:
[1] = single agent, 400 mg infused over one hour
[2] = tested on: Src family kinases (Src, Lck, Yes, Fyn); conditions: at nanomolar concentrations
[3] = mice
proteasome = conditions: cultured breast cancer cells; disulfiram bound to copper

- complications of intravenous infusion [1]: without complication
Compound: CCN(CC)CCCC(C)Nc1ccnc2cc(Cl)ccc12.O=P(O)(O)O.O=P(O)(O)O (centres unmarked) [chloroquine phosphate, 7-chloro-4-[[4-(diethylamino)-1-methylbutyl]amino]quinoline phosphate (1:2)]

Compound: Cc1nc(Nc2ncc(C(=O)Nc3c(C)cccc3Cl)s2)cc(N2CCN(CCO)CC2)n1.O [dasatinib, N-(2-chloro-6-methylphenyl)-2-[[6-[4-(2-hydroxyethyl)-1-piperazinyl]-2-methyl-4-pyrimidinyl]amino]-5-thiazolecarboxamide, monohydrate]
- inhibition of Src family kinases (Src, Lck, Yes, Fyn) [2]: inhibits

Compound: Cl.Cl.Nc1ccccc1Oc1ccc2c(N)nsc2c1 [Example M62812, 3-amino-6-(2-aminophenoxy)-1,2-benzisothiazole dihydrochloride]
- prevention of lethal septic shock [3]: prevents lethal septic shock

Compound: CCN(CC)C(=S)SSC(=S)N(CC)CC [disulfiram, 1-(diethylthiocarbamoyldisulfanyl)-N,N-diethyl-methanethioamide]
- proteasomal activity (proteasome): inhibits proteasomal activity

- inhibition of CpG-induced Src family kinase activation or its dependent cellular responses (Src family kinase): does not inhibit
Compound: CCN(CC)CCCC(C)Nc1ccnc2cc(Cl)ccc12 (centres unmarked) [chloroquine]
